Results taken from PubChem BioAssay AID2305 (GlaxoSmithKline (GSK), 2010).
Several values for one entry are separate records, joined by “and”; a condition that tells them apart may be missing. Equal values may be shown once.

Tested on: P. falciparum 3D7 growth, pLDH absorbance
Assay: P. falciparum 3D7 growth inhibition, dose response, strain 3D7 (AID 2305)

| SMILES | IC50 |
| --- | --- |
| CCCCCn1c(Sc2ccc(C#N)c([N+](=O)[O-])c2)nnc1-c1cc(OC)cc(OC)c1 | 960 nM |
| CC(=O)c1ccc(Nc2c(C(N)=O)cnc3cc(-c4c(C)noc4C)ccc23)cc1 | 190 nM |
| COc1ccc(C(=O)c2ccc3[nH]cc(C4=CCN(C)CC4)c3c2)cc1 | 1050 nM |
| O=C(NCCc1ccccc1)N(Cc1ccccc1-c1cccc(CNCCc2ccccc2)c1)C1CCN(Cc2ccccc2)CC1 | 620 nM |
| COc1cccc2c(NN=Cc3ccccc3F)ccnc12 | 940 nM |
| CCOc1cc(CNCCCCCCNCc2cc(OCC)c(OCC)c3ccccc23)c2ccccc2c1OCC | 280 nM |
| CCC(C)NC(=O)CN1CN(c2ccccc2)C2(CCN(C(=O)c3ccc4ccccc4c3)CC2)C1=O (centres undefined) | 630 nM |
| COc1ccc(S(=O)(=O)Nc2cc(C)cc(Br)c2OC)cc1N1CCN(C(=O)C(Cl)(Cl)Cl)CC1 | 870 nM |
| Clc1ncnc2scc(-c3ccc(Br)cc3)c12 | 890 nM |
| O=C(c1cnn(-c2ccccc2)c1C(F)(F)F)N1CCN(c2ccnc3cc(Cl)ccc23)CC1 | 530 nM |
| CCCCCC(=O)NCC(NCCCNc1cc(=O)c2ccccc2[nH]1)c1cc(Br)cc(Br)c1 (centres undefined) | 650 nM |
| N#Cc1cccc(C(=O)NC2CCN(CCCCCNC(=O)/C=C/c3ccc(Cl)c(Cl)c3)CC2)c1 | 880 nM |
| O=S(=O)(NCCN1CCCC1)c1ccc(-c2cccc(CNCc3ccsc3)c2)s1 | 900 nM |
| O=C(C=Cc1cn(-c2ccccc2)nc1-c1cccs1)N1CCN(c2ccncc2)CC1 | 720 nM |
| CCc1cn2c3c(cc(C(=O)N[C@@H](Cc4ccccc4)[C@H](O)CNC4CCOCC4)cc13)N(C(C)C)S(=O)(=O)CC2 | 80 nM |
| CN(C)C(=O)c1ccc(CN(Cc2cccc(OC(C)(C)C)c2)Cc2ccc3c(c2)OCCO3)cc1 | 570 nM |
| CC(C)(C)c1ccc(N2C(N)=NC(N)=NC2(C)C)cc1Cl | 10 nM |
| C=C[C@]1(C)C[C@@H](OC(=O)c2cncn(COC)c2=O)[C@]2(C)[C@H](C)CC[C@]3(CCC(=O)[C@H]32)[C@@H](C)[C@@H]1O | 880 nM |
| CCCCCCCN1CC[C@@H](C[C@H](N)Cc2ccnc3ccc(OC)cc23)[C@@H](CC)C1 | 1070 nM |
| COc1ccc2ncc(F)c(CCN3CC[C@@H](CNCc4nc5c(cc4C)SCC(=O)N5)C3)c2n1 | 1150 nM |
| CCN(CC)CCNc1ccnc2[nH]c3ccc(I)cc3c12 | 230 nM |
| CCN(CCCN1CCCCC1)c1cc(C)nc(Nc2ccc(Oc3ccccc3)cc2)n1 | 300 nM |
| Cc1cccc2[nH]c(-c3cccc(-c4cccc(CN5CCC(CO)CC5)c4)c3)nc12 | 720 nM |
| Cc1c(S(=O)(=O)Nc2cccc(CCN3CCCCC3CCN3CCCC3)c2)sc2ccc(Cl)cc12 (centres undefined) | 930 nM |
| OC(COc1ccccc1-c1nc2ccccc2o1)CN1CCCN(CCc2ccccc2)CC1 (centres undefined) | 760 nM |

| SMILES | IC50 |
| --- | --- |
| COc1ccc(CCNc2nc(NCCc3cnc[nH]3)nc(NCc3cccc4ccccc34)n2)cc1OC | 540 nM |
| Cc1ccccc1C1CCN(C2CCC(NC(=O)/C=C/c3cc(F)cc(F)c3)CC2)CC1 (centres undefined) | 830 nM |
| CO/C(=C\C=C\c1cc2cc(Cl)c(Cl)cc2[nH]1)C(=O)NC1CCN(CCOc2ccccc2)CC1 | 610 nM |
| O=C(C=Cc1ccc(Cl)c(Cl)c1)NCCCCCN1CCC(CCNC(=O)/C=C/c2ccccc2)CC1 | 780 nM |
| O=C(/C=C/c1ccccc1Cl)NC1CCC(CN2CCC(c3c[nH]c4ccccc34)CC2)CC1 (centres undefined) | 600 nM and 850 nM |
| COCCOc1cccc(CN2CCC(c3cc4nc(C)cc(C(F)(F)F)n4n3)C2)c1 (centres undefined) | 1330 nM |
| O=c1cc(NCCCNC2CCOc3c(Cl)cccc32)[nH]c2ccccc12 (centres undefined) | 830 nM |
| O=C(/C=C/c1ccc(Cl)c(Cl)c1)NCCCCCN1CCCN(C(=O)Nc2ccc([N+](=O)[O-])cc2)CC1 | 620 nM |
| CC(C)(C)CCN1CCC(CNC(=O)c2cc(-c3cccc(Cl)c3)cs2)C1 (centres undefined) | 820 nM |
| NC1=Nc2ccc(Cl)cc2C1(O)c1ccccc1 (centres undefined) | 880 nM |
| COc1ccc(COc2cc(NCCCN)nc3ccccc23)cc1 | 1280 nM |
| CCCC(C)NC(=O)[C@H](CC1CCCCC1)NC(=O)c1ccc(O)c(-c2ccc(OC)cc2)c1 (some centres undefined) | 1130 nM |
| O=C1NC(c2ccc(N3CCCCCC3)cc2)Nc2ccccc21 (centres undefined) | 570 nM |
| Cc1cc(N2CCCN(CC3CCCCC3)CC2)nc(Nc2ccc(Br)cc2)n1 | 940 nM |
| CC(C)c1sc(N2CCN(C)CC2)nc1C(=O)Nc1ccc(F)cc1C(F)(F)F | 190 nM |
| N=c1c(C(=O)NCc2ccccc2)cc2c(=O)n3ccccc3nc2n1CCc1ccccc1 | 530 nM |
| Cc1cccc2[nH]c(-c3cccc(-c4ccc(NC(=O)c5ccncc5)cc4)c3)nc12 | 500 nM |
| NC(N)=Nc1nc(-c2ccc(NCc3ccc(CNc4cccc(-c5csc(N=C(N)N)n5)c4)cc3)cc2)cs1 | 310 nM |
| CC(C)(C)c1ccc(-c2nnc(N)nc2N)cc1 | 860 nM |
| CCCC1N=C(N)N=C(N)N1c1ccc(Cl)cc1 (centres undefined) | 50 nM |
| Cc1ccnc(NC(=O)c2cc(-c3cccc([N+](=O)[O-])c3)nc3onc(C)c23)c1 | 890 nM |
| CC1CN(c2ccc(NC(=O)c3ccsc3)cc2C(=O)N2CCN(Cc3ccc(C(C)(C)C)cc3)CC2)CC(C)O1 (centres undefined) | 870 nM |
| Cc1ccccc1C1CCN(C2CCC(NC(=O)c3cc(-c4ccccc4)oc3C)CC2)CC1 (centres undefined) | 1030 nM |
| CCCCN(C(=O)c1ccccc1Cl)c1nnc(-c2ccccc2C)s1 | 1020 nM |
| O=C(NCCc1ccc(F)cc1)c1ccc(N2CCN(c3ccncc3)CC2)nc1 | 1420 nM |

| SMILES | IC50 |
| --- | --- |
| Cc1ccc(C)c(-n2c(SCC(=O)Nc3ccc(C(N)=O)cc3)nnc2-c2cccc(Cl)c2)c1 | 840 nM |
| CC1(C)N=C(N)N=C(N)N1OCc1nc(N)nc(Nc2ccccc2)n1 | 270 nM |
| O=C(/C=C/c1ccc(Cl)c(Cl)c1)N1CCCC(CCCN2CCC(c3c[nH]c4ccccc34)CC2)C1 (centres undefined) | 1090 nM |
| c1ccc2c(CNc3nc(NCC4CCCCC4)nc4nc[nH]c34)cccc2c1 | 890 nM |
| CC(=O)C1(c2ccccc2)CCN(CCC2(c3ccc(Cl)c(Cl)c3)CN(C(=O)C3CCCCC3)CCO2)CC1 (centres undefined) | 310 nM |
| CC(C)CCN1CCCN(Cc2cccc(NC(=O)c3cc4ccccc4s3)c2)CC1 | 920 nM |
| O=C(NC1CCCCCC1)[C@@H]1CCCN1C(=O)c1ccc(O)c(-c2ccc(Cl)c(Cl)c2)c1 | 340 nM |
| O=C(N[C@@H](CC1CCCCC1)C(=O)NCc1cccc2ccccc12)c1ccc(O)c(-c2ccc(Cl)c(Cl)c2)c1 | 220 nM |
| CN1CCN(c2ccc(Nc3ncc([N+](=O)[O-])c(Nc4ccccc4O)n3)cc2)CC1 | 720 nM |
| COc1ccc(CN2CCC(C(=O)Nc3cccc(-c4cccc(Cl)c4)c3)CC2)cc1O | 970 nM |
| CN1CCC(Oc2ccc(CN3CC[C@H](NC(=O)c4ccc(Cl)c(Cl)c4)C3)c3ccccc23)C1 (some centres undefined) | 880 nM |
| CCCCCCCN1CC[C@H](CC(=O)Nc2ccnc3ccc(OC)cc23)[C@@H](CC)C1 | 590 nM |
| Cc1cccc2[nH]c(-c3ccc(-c4cccc(NC(=O)c5cnn6cccnc56)c4)cc3)nc12 | 870 nM |
| CC(COc1ccc2c(c1)OC(C)(C)CC2c1ccccc1)NCC(O)c1cccc(Cl)c1 (centres undefined) | 750 nM |
| CCN(CC)C(=NCCCCCCN=C(/N=C(/N)Nc1ccc(Br)cc1)N(CC)CC)/N=C(/N)Nc1ccc(Br)cc1 | 380 nM |
| CS(=O)(=O)n1c(CN2CCN(c3ncc(C(F)(F)F)cc3Cl)CC2)nc2ccccc21 | 1060 nM |
| CN1CCN(Cc2cccc(-c3ccc4c(Nc5cc(O)c(Cl)cc5F)ccnc4c3)c2)CC1 | 770 nM |
| COc1ccc2c(NN=Cc3ccccc3[N+](=O)[O-])ccnc2c1 | 740 nM |
| C/C=C1/CN2CC[C@H]1C[C@H]2[C@H](O)c1ccnc2ccc(OC)cc12 | 200 nM |
| Clc1cc(Cl)c2c(c1)C(NCCCNc1nc3ccccc3[nH]1)CCO2 (centres undefined) | 330 nM |
| CCC(=O)N[C@@H]1CN[C@@H](C#Cc2cc3c(Nc4ccc(OCc5cccc(F)c5)c(Cl)c4)ncnc3s2)C1 | 1120 nM |
| FC(F)(F)COc1c(CNCCCCCCNCc2ccc3ccccc3c2OCC(F)(F)F)ccc2ccccc12 | 760 nM |
| Cc1ccc(NC(=O)c2ccc3ncccc3c2)cc1OC1CCN(Cc2ccsc2)CC1 | 930 nM |
| Cc1nn(-c2cccc(C(F)(F)F)c2)c2sc(C(=O)NC3CCN(C(C)C)CC3)cc12 | 900 nM |
| Cc1cccc(NC(=O)N(Cc2cc3cc(C)cc(C)c3[nH]c2=O)C2CC2)c1 | 340 nM |

| SMILES | IC50 |
| --- | --- |
| COc1ccc2nccc([C@@H](O)CN3CCC(NC(=O)/C=C/c4cccc(NC(C)=O)c4)CC3)c2c1 | 960 nM |
| CN1CCc2cc(NS(=O)(=O)c3ccc(-c4ccc(Cl)s4)cc3)c(N3CCCCC3)cc2CC1 | 730 nM |
| CC(=O)Nc1cccc(C(=O)Nc2ccc(-c3cccc(-c4nc5ccc(F)cc5[nH]4)c3)cc2)c1 | 630 nM |
| CN1CCN(CCCN(Cc2cccc(-c3ccc(CNC4CCCC4)cc3)c2)C(=O)/C=C/c2ccccc2)CC1 | 750 nM |
| CCOC(=O)c1cncc(/C=C/c2cc(C)cnc2N)c1 | 420 nM |
| O=C(/C=C/c1ccc(Cl)c(Cl)c1)NCCCCCCN1CCCN(C(=O)Nc2ccc(F)c(Cl)c2)CC1 | 740 nM |
| Oc1cc2c(cc1CN1CCN(Cc3ccccc3F)CC1)CCC2 | 760 nM |
| Cc1oc(-c2cccc(Oc3ccccc3)c2)nc1CN(Cc1cnn(C)c1)C(C)C | 1090 nM |
| CCOc1cc2c(cc1S(=O)(=O)c1ccc(COc3ccc(C(F)(F)F)cc3)cc1)CCN(C)CC2 | 1020 nM |
| COc1ccc(Br)cc1/C=C/C(=O)Nc1ccc(C2CCN(C)CC2)cc1 | 500 nM |
| CC(=O)N1c2ccccc2C(C)=CC1(C)C | 940 nM |
| N#Cc1cccc([C@H](O)[C@@H]2CN(CCC3CCCCC3)CC[C@@]2(O)c2ccccc2)c1 | 130 nM |
| CCOc1ccc(-c2n[nH]c(C(F)(F)F)c2-c2ccccc2OC)c(O)c1 | 1140 nM |
| CCCN1CCN(CC(O)CNC(=O)Nc2ccc(Cl)cc2)CC1 (centres undefined) | 100 nM |
| Nc1nc(N)c2c3c(ccc2n1)CCC3 | 930 nM |
| CN(C)Cc1c(O)ccc2[nH]c(-c3ccc(F)cc3F)nc12 | 1300 nM |
| CC(C)NCC(=O)Nc1cccc(C(=O)Nc2cccc(C(F)(F)F)c2)c1 | 270 nM |
| CN1CCC(c2c[nH]c3ccc(NC(=O)Nc4ccc(-c5ccncc5)c(Cl)c4Cl)cc23)CC1 | 700 nM |
| O=C(Cn1nc(Br)nc1[N+](=O)[O-])NCC1CCCCC1 | 1100 nM |
| CCC(CC)n1cc2c(ccc3nc(N)nc(N)c32)n1 | 80 nM |
| COc1ccc(C(=O)Nc2cc(Cl)c3c(c2)C2CCCN2CC3)cc1C(F)(F)F (centres undefined) | 750 nM |
| O=[N+]([O-])c1ccc(C=NNc2nc3ccccc3[nH]2)cc1 | 280 nM |
| Cc1cnc(NC(=O)c2cn(-c3ccccc3)nc2-c2cccs2)s1 | 950 nM |
| CC(C)(CNC(=O)/C=C/c1ccc(Cl)c(Cl)c1)CNc1cc(=O)c2ccccc2[nH]1 | 860 nM |
